The numbers were not newly measured in PubChem BioAssay AID1259410 (Chemical Carcinogenesis Research Information System (CCRIS), 2018), which cites them from elsewhere.

This data set has as its system rodent tumor promotion studies, tumor incidence. As to the kind of experiment: CCRIS tumor promotion studies. Conditions: Carcinogen: IRRADIATION; Doses [Carcinogen]: 260 CGY GAMMA RAYS AT DAY 20 OF PREGNANCY; Doses [Promoter]: 0; 0.376 UG/D RELEASED FROM PELLET IMPLANTED AFTER NURSING DISCONTINUED, PELLET REPLACED EVERY 8 WK (STUDY DURATION: 1 Y; Route [Carcinogen]: DERMAL; Route [Promoter]: IMPLANT; Species: RAT; Strain/Sex: WISTAR/FEMALE.

With `C/C=C(\C(=C/C)c1ccc(O)cc1)c1ccc(O)cc1`, the outcome is recorded as “mammary gland: tumor”.
